Source: PubChem BioAssay (NCI)
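Test compounds were applied to cells in 96-well plates for 48 hours at 5 doses. TGI: total growth inhibition.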

How the values were obtained:
Assay in all cases: NCI anticancer screen, dose series, 48 h
K-562 leukemia = tested on: K-562 leukemia
UO-31 renal = tested on: UO-31 renal
KM12 colon = tested on: KM12 colon
A549 NSCLC = tested on: A549 NSCLC
SW-620 colon = tested on: SW-620 colon
RXF 393 renal = tested on: RXF 393 renal
NCI-H522 lung = tested on: NCI-H522 lung
CCRF-CEM leukemia = tested on: CCRF-CEM leukemia
OVCAR-3 ovarian = tested on: OVCAR-3 ovarian
RXF-631 renal = tested on: RXF-631 renal
LOX IMVI melanoma = tested on: LOX IMVI melanoma
U251 CNS = tested on: U251 CNS
UACC-62 melanoma = tested on: UACC-62 melanoma
SF-539 CNS = tested on: SF-539 CNS
OVCAR-5 ovarian = tested on: OVCAR-5 ovarian
HCC-2998 colon = tested on: HCC-2998 colon
EKVX NSCLC = tested on: EKVX NSCLC
IGROV1 ovarian = tested on: IGROV1 ovarian
786-0 renal = tested on: 786-0 renal
OVCAR-4 ovarian = tested on: OVCAR-4 ovarian
HT29 colon = tested on: HT29 colon
MALME-3M melanoma = tested on: MALME-3M melanoma
TK-10 renal = tested on: TK-10 renal
SF-295 CNS = tested on: SF-295 CNS
SK-MEL-2 melanoma = tested on: SK-MEL-2 melanoma
CAKI-1 renal = tested on: CAKI-1 renal
UACC-257 melanoma = tested on: UACC-257 melanoma
SNB-75 CNS = tested on: SNB-75 CNS
LXFL 529 NSCLC = tested on: LXFL 529 NSCLC
M19-MEL melanoma = tested on: M19-MEL melanoma
NCI-H460 lung = tested on: NCI-H460 lung
DMS 114 small cell lung = tested on: DMS 114 small cell lung
HOP-92 NSCLC = tested on: HOP-92 NSCLC
M14 melanoma = tested on: M14 melanoma
NCI-H23 lung = tested on: NCI-H23 lung
SF-268 CNS = tested on: SF-268 CNS
KM20L2 colon = tested on: KM20L2 colon
SK-MEL-5 melanoma = tested on: SK-MEL-5 melanoma
SK-MEL-28 melanoma = tested on: SK-MEL-28 melanoma
HOP-18 NSCLC = tested on: HOP-18 NSCLC
DMS 273 small cell lung = tested on: DMS 273 small cell lung
OVCAR-8 ovarian = tested on: OVCAR-8 ovarian
HOP-62 NSCLC = tested on: HOP-62 NSCLC
ACHN renal = tested on: ACHN renal
SN12C renal = tested on: SN12C renal
HL-60(TB) leukemia = tested on: HL-60(TB) leukemia
SK-OV-3 ovarian = tested on: SK-OV-3 ovarian
COLO 205 colon = tested on: COLO 205 colon
DLD-1 colon = tested on: DLD-1 colon
SNB-19 CNS = tested on: SNB-19 CNS
MOLT-4 leukemia = tested on: MOLT-4 leukemia
HCT-116 colon = tested on: HCT-116 colon
HCT-15 colon = tested on: HCT-15 colon
RPMI-8226 leukemia = tested on: RPMI-8226 leukemia
SNB-78 CNS = tested on: SNB-78 CNS

O=C1/C(=C\c2ccccc2)C2/C(=C\c3ccccc3)C(=O)/C(=C\c3ccccc3)C2/C1=C\c1ccccc1 (stereo not given)
TGI (K-562 leukemia): > 100 µM
TGI (UO-31 renal): 3.32 µM
TGI (KM12 colon): 3.54 µM
TGI (A549 NSCLC): 7 µM
TGI (SW-620 colon): 7.26 µM
TGI (RXF 393 renal): 3.15 µM
TGI (NCI-H522 lung): 2.09 µM
TGI (CCRF-CEM leukemia): 4.35 µM
TGI (OVCAR-3 ovarian): 4.92 µM
TGI (RXF-631 renal): 9.68 µM
TGI (LOX IMVI melanoma): 1.75 µM
TGI (U251 CNS): 2.43 µM
TGI (UACC-62 melanoma): 4.24 µM
TGI (SF-539 CNS): 6.81 µM
TGI (OVCAR-5 ovarian): 2.82 µM
TGI (HCC-2998 colon): 2.59 µM
TGI (EKVX NSCLC): 52.7 µM
TGI (IGROV1 ovarian): 4.8 µM
TGI (786-0 renal): 2.78 µM
TGI (OVCAR-4 ovarian): 3.83 µM
TGI (HT29 colon): 3.7 µM
TGI (MALME-3M melanoma): 4.36 µM
TGI (TK-10 renal): 19.5 µM
TGI (SF-295 CNS): 5.71 µM
TGI (SK-MEL-2 melanoma): 3.62 µM
TGI (CAKI-1 renal): 8.17 µM
TGI (UACC-257 melanoma): 4.2 µM
TGI (SNB-75 CNS): 71.2 µM
TGI (LXFL 529 NSCLC): 24.9 µM
TGI (M19-MEL melanoma): 3.47 µM
TGI (NCI-H460 lung): 4.2 µM
TGI (DMS 114 small cell lung): 5.67 µM
TGI (HOP-92 NSCLC): 4.4 µM
TGI (M14 melanoma): 3.44 µM
TGI (NCI-H23 lung): 3.78 µM
TGI (SF-268 CNS): 18.5 µM
TGI (KM20L2 colon): 3.55 µM
TGI (SK-MEL-5 melanoma): 4.7 µM
TGI (SK-MEL-28 melanoma): 8.75 µM
TGI (HOP-18 NSCLC): > 100 µM
TGI (DMS 273 small cell lung): 3.17 µM
TGI (OVCAR-8 ovarian): 21.2 µM
TGI (HOP-62 NSCLC): 5.03 µM
TGI (ACHN renal): 5.94 µM
TGI (SN12C renal): 4.89 µM
TGI (HL-60(TB) leukemia): 4.5 µM
TGI (SK-OV-3 ovarian): 46.9 µM
TGI (COLO 205 colon): 2.94 µM
TGI (DLD-1 colon): 2.85 µM

CC1CC2OC(=O)CC2C[C@@H]1O[Si](C)(C)C(C)(C)C (stereo not given in full)
TGI (SNB-19 CNS): > 100 µM
TGI (K-562 leukemia): > 100 µM
TGI (UO-31 renal): > 100 µM
TGI (KM12 colon): > 100 µM
TGI (A549 NSCLC): > 100 µM
TGI (SW-620 colon): > 100 µM
TGI (MOLT-4 leukemia): 56.7 µM
TGI (CCRF-CEM leukemia): > 100 µM
TGI (OVCAR-3 ovarian): > 100 µM
TGI (RXF-631 renal): > 100 µM
TGI (LOX IMVI melanoma): > 100 µM
TGI (HCT-116 colon): > 100 µM
TGI (UACC-62 melanoma): > 100 µM
TGI (SF-539 CNS): > 100 µM
TGI (OVCAR-5 ovarian): > 100 µM
TGI (HCC-2998 colon): > 100 µM
TGI (EKVX NSCLC): > 100 µM
TGI (IGROV1 ovarian): > 100 µM
TGI (786-0 renal): > 100 µM
TGI (OVCAR-4 ovarian): > 100 µM
TGI (HT29 colon): > 100 µM
TGI (MALME-3M melanoma): > 100 µM
TGI (TK-10 renal): > 100 µM
TGI (SF-295 CNS): > 100 µM
TGI (SK-MEL-2 melanoma): > 100 µM
TGI (CAKI-1 renal): > 100 µM
TGI (UACC-257 melanoma): > 100 µM
TGI (SNB-75 CNS): > 100 µM
TGI (LXFL 529 NSCLC): > 100 µM
TGI (HCT-15 colon): > 100 µM
TGI (M19-MEL melanoma): > 100 µM
TGI (NCI-H460 lung): > 100 µM
TGI (DMS 114 small cell lung): 89.4 µM
TGI (HOP-92 NSCLC): 34.7 µM
TGI (M14 melanoma): > 100 µM
TGI (RPMI-8226 leukemia): 51.8 µM
TGI (SNB-78 CNS): > 100 µM
TGI (NCI-H23 lung): > 100 µM
TGI (SF-268 CNS): > 100 µM
TGI (KM20L2 colon): > 100 µM
TGI (SK-MEL-5 melanoma): 97.4 µM
TGI (HOP-18 NSCLC): > 100 µM
TGI (DMS 273 small cell lung): > 100 µM
TGI (OVCAR-8 ovarian): > 100 µM
TGI (HOP-62 NSCLC): > 100 µM
TGI (ACHN renal): > 100 µM
TGI (SN12C renal): > 100 µM
TGI (HL-60(TB) leukemia): 45.5 µM
TGI (SK-OV-3 ovarian): > 100 µM
TGI (COLO 205 colon): > 100 µM
TGI (DLD-1 colon): > 100 µM
